Laboratory results from patent US9309263B2, “Fused multi-cyclic sulfone compounds as inhibitors of beta-secretase and methods of use thereof” (AMGEN INC., priority 2013, dated 2016).
Read-outs that look alike come from different tables or passages of the source.

Legend:
[1] = biological target: Beta Secretase enzyme (BACE) (Homo sapiens, UniProt P56817); assay: In vitro enzymatic BACE FRET assay; format: biochemical; conditions: read-out: BACE1 FRET assay IC50
How it was run: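 Cleavage of a quenched 50 nM FRET peptide substrate, read as fluorescence (excitation 488 nm, […]) after 1 h and Tris quench to neutrality. Buffer: 0.05 M acetate pH 4.2 with 10% DMSO and 100 uM genapol. Inhibitor dilutions were pre-incubated 1 h with 0.2 nM enzyme.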

[2] = test system: Aβ 40 in conditioned medium of cells stably expressing Amyloid Precursor Protein (APP); assay: In vitro BACE cell-based assay (Aβ 40 sandwich ELISA); conditions: Homo sapiens, HEK293
How it was run: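 Aβ40 in conditioned medium measured by pAb40/biotin-6E10 sandwich ELISA with time-resolved europium fluorescence, after 24 h exposure of stable APP cells to compounds (10-point series starting 100 μM or 10 μM; 0.1% DMSO). IC50 fitted from percent of control against concentration.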

[3] = biological target: Cathepsin D (Cat D) (Homo sapiens, UniProt P07339); assay: In vitro enzymatic Cathepsin D (Cat D) FRET assay; format: biochemical
Sequence of Cathepsin D (Cat D) (P07339 65-412, species assumed): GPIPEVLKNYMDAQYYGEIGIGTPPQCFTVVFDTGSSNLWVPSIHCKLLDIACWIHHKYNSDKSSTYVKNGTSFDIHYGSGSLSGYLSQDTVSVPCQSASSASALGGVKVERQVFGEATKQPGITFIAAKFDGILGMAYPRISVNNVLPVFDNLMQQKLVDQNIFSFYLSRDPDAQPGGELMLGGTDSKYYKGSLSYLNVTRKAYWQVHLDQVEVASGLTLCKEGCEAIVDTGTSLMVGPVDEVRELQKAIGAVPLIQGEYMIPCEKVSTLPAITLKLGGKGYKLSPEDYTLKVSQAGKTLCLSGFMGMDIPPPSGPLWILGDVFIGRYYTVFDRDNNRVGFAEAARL
How it was run: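 FRET peptide substrate (20 nM) is cleaved by CHO-derived recombinant enzyme (9 nM) for 1 h after a 1 h inhibitor pre-incubation, at pH 3.5 in citrate buffer with 5 mM CHAPS and 10% DMSO. Tris addition ends the reaction; fluorescence measured at 500 nm excitation, 580 nm emission.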

[4] = average IC50, in vitro enzymatic BACE FRET assay
[5] = average IC50, HEK cell assay, Aβ 40 readout
[6] = Cathepsin D FRET assay, read-out: CatD IC50
[7] = text summary referring to data in Table 2

Sequence of Beta Secretase enzyme (BACE) (P56817 46-501): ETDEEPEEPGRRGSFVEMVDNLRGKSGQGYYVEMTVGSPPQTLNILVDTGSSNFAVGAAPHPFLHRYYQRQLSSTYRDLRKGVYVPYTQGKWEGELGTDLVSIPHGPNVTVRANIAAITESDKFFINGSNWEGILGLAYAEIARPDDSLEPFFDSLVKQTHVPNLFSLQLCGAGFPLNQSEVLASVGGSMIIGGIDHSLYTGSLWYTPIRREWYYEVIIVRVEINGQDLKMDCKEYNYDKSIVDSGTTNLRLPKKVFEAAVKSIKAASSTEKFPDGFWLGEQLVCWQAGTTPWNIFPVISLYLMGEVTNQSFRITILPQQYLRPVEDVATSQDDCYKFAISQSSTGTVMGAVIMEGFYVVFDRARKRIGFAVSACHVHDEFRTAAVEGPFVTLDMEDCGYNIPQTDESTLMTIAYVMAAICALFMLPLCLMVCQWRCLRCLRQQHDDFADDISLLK

Row | SMILES | IC50 ([1]; average IC50) | IC50 ([2]; HEK cells, average IC50) | IC50 ([3]; read-out: CatD IC50) | IC50 [1, 4] | IC50 [2, 5] | IC50 [3, 6] | IC50 ([2]; HEK cell, average IC50) | IC50 [3, 7]
1 | CC1(C)C(N)=N[C@]2(C)c3cc(NC(=O)c4ccc(C5CC5)cn4)ccc3OCC[C@H]2S1(=O)=O [Example 179, N-((4aR,11bR)-2-amino-3,3,11b-trimethyl-4,4-dioxido-4a,5,6,11b-tetrahydro-3H-[1]benzoxepino[4,5-b][1,4]thiazin-10-yl)-5-cyclopropyl-2-pyridinecarboxamide] | 0.066 µM | 0.035 µM | 705 µM | – | – | – | – | –
2 | Cc1cc(C(F)(F)F)cnc1C(=O)Nc1ccc2c(c1)[C@@]1(C)N=C(N)C(C)(C)S(=O)(=O)[C@H]1CC(C)(C)O2 [Example 103, N-((4aS,11bR)-2-amino-3,3,6,6,11b-pentamethyl-4,4-dioxido-4a,5,6,11b-tetrahydro-3H-[1]benzoxepino[4,5-b][1,4]thiazin-10-yl)-3-methyl-5-(trifluoromethyl)-2-pyridinecarboxamide] | – | – | – | 0.018 µM | 0.023 µM | 143 µM | – | –
3 | CC1(C)C(N)=N[C@]2(C)c3cc(Nc4ncnc5cc(Cl)cnc45)ccc3OCC[C@H]2S1(=O)=O [Example 176, (4aR,11bR)-N^~10^~-(7-chloropyrido[3,2-d]yrimidin-4-yl)-3,3,11b-trimethyl-4a,5,6,11b-tetrahydro-3H-[1]benzoxepino[4,5-b][1,4]thiazine-2,10-diamine 4,4-dioxide] | 0.008 µM | 0.011 µM | 186 µM | – | – | – | – | –
4 | COc1cnc2c(Nc3ccc4c(c3)[C@@]3(CF)N=C(N)C(C)(C)S(=O)(=O)[C@H]3CCO4)nccc2n1 [Example 155, (4aS,11bS)-11b-(fluoromethyl)-N^~10^~-(2-methoxypyrido[3,4-b]pyrazin-5-yl)-3,3-dimethyl-4a,5,6,11b-tetrahydro-3H-[1]benzoxepino[4,5-b][1,4]thiazine-2,10-diamine 4,4-dioxide] | – | – | – | 0.014 µM | 0.062 µM | > 400 µM | – | –
5 | CC1(C)C(N)=N[C@]2(C)c3cc(NC(=O)c4ncc(C(F)F)cc4Cl)ccc3OCC[C@H]2S1(=O)=O [Example 172, N-((4aR,11bR)-2-amino-3,3,11b-trimethyl-4,4-dioxido-4a,5,6,11b-tetrahydro-3H-[1]benzoxepino[4,5-b][1,4]thiazin-10-yl)-3-chloro-5-(difluoromethyl)-2-pyridinecarboxamide] | 0.012 µM | 0.004 µM | > 400 µM | – | – | – | – | –
6 | Cc1cc(Cl)cnc1C(=O)Nc1ccc2c(c1)[C@@]1(CF)N=C(N)C(C)(C)S(=O)(=O)[C@@H]1CCO2 [Example 149, N-((4aR,11bS)-2-amino-11b-(fluoromethyl)-3,3-dimethyl-4,4-dioxido-4a,5,6,11b-tetrahydro-3H-[1]benzoxepino[4,5-b][1,4]thiazin-10-yl)-5-chloro-3-methyl-2-pyridinecarboxamide] | – | – | – | 0.009 µM | 0.044 µM | > 400 µM | – | –
7 | CC1(C)C(N)=N[C@]2(C)c3cc(NC(=O)c4ccc(OCC(F)(F)F)cn4)ccc3OCC[C@H]2S1(=O)=O [Example 97, N-((4aR,11bR)-2-amino-3,3,11b-trimethyl-4,4-dioxido-4a,5,6,11b-tetrahydro-3H-[1]benzoxepino[4,5-b][1,4]thiazin-10-yl)-5-(2,2,2-trifluoroethoxy)-2-pyridinecarboxamide] | – | – | – | 0.022 µM | 0.069 µM | 974 µM | – | –
8 | Cc1cc(Cl)cnc1C(=O)Nc1cnc2c(c1)[C@@]1(C)N=C(N)C3(CCC3)S(=O)(=O)[C@@H]1CCO2 [Example 59, N-((4a′R,11b′R)-2′-amino-11b′-methyl-4′,4′-dioxido-4a′,5′,6′,11b′-tetrahydrospiro[cyclobutane-1,3′-pyrido[3′,2′:6,7]oxepino[4,5-b][1,4]thiazin]-10′-yl)-5-chloro-3-methyl-2-pyridinecarboxamide] | 0.05 µM | – | > 400 µM | – | – | – | 0.057 µM | –
9 | Cc1cc(Cl)cnc1C(=O)Nc1ccc2c(c1)[C@@]1(C)N=C(N)C(C)(C)S(=O)(=O)[C@@H]1CCS2(=O)=O [Example 124, N-((4aR,11bR)-2-amino-3,3,11b-trimethyl-4,4,7,7-tetraoxido-4a,5,6,11b-tetrahydro-3H-benzo[6,7]thiepino[4,5-b][1,4]thiazin-10-yl)-5-chloro-3-methylpicolinamide] | – | – | – | 0.006 µM | 0.008 µM | > 1.65 µM | – | –
10 | C#CCOc1cnc(C(=O)Nc2ccc3c(c2)[C@@]2(C)N=C(N)C(C)(C)S(=O)(=O)[C@@H]2CC(C)(C)O3)cn1 [Example 143, N-((4aR,11bR)-2-Amino-3,3,6,6,11b-pentamethyl-4,4-dioxido-4a,5,6,11b-tetrahydro-3H-benzo[6,7]oxepino[4,5-b][1,4]thiazin-10-yl)-5-(prop-2-yn-1-yloxy)pyrazine-2-carboxamide] | – | – | – | 0.002 µM | 0.0005 µM | 202 µM | – | –
11 | CC#C[C@H](C)Oc1ccc(C(=O)Nc2ccc3c(c2)[C@@]2(C)N=C(N)C(C)(C)S(=O)(=O)[C@@H]2CCO3)nc1 (single isomer, unassigned) [Example 69] | 0.081 µM | – | 811 µM | – | – | – | 1.01 µM | –
12 | Cc1cc(OCC2CC2)cnc1C(=O)Nc1ccc2c(c1)[C@@]1(C)N=C(N)C(C)(C)S(=O)(=O)[C@@H]1CCO2 [Example 170, N-((4aR,11bR)-2-amino-3,3,11b-trimethyl-4,4-dioxido-4a,5,6,11b-tetrahydro-3H-[1]benzoxepino[4,5-b][1,4]thiazin-10-yl)-5-(cyclopropylmethoxy)-3-methyl-2-pyridinecarboxamide] | 0.014 µM | 0.026 µM | 2050 µM | – | – | – | – | –
13 | CC#CCOc1cnc2c(Nc3ccc4c(c3)C3(C)N=C(N)C(C)(C)S(=O)(=O)C3CCO4)nccc2c1 [Example 182, (4aR,11bR)-N^~10^~-(3-(2-butyn-1-yloxy)-1,7-naphthyridin-8-yl)-3,3,11b-trimethyl-4a,5,6,11b-tetrahydro-3H-[1]benzoxepino[4,5-b][1,4]thiazine-2,10-diamine 4,4-dioxide] | 0.003 µM | 0.014 µM | > 400 µM | – | – | – | – | –
14 | Cc1cc(Cl)cnc1C(=O)Nc1cnc2c(c1)[C@@]1(C)N=C(N)C(C)(C)S(=O)(=O)[C@H]1CCO2 [Example 20, N-((4aS,11bR)-2-amino-3,3,11b-trimethyl-4,4-dioxido-4a,5,6,11b-tetrahydro-3H-pyrido[3′,2′:6,7]oxepino[4,5-b][1,4]thiazin-10-yl)-5-chloro-3-methyl-2-pyridinecarboxamide] | 0.019 µM | – | 377 µM | – | – | – | 0.022 µM | –
15 | C#CCOc1ccc(C(=O)Nc2ccc3c(c2)[C@@]2(C)N=C(N)C(C)(C)S(=O)(=O)[C@@H]2C[C@H](C)O3)nc1 [Example 145, N-((4aR,6S,11bR)-2-amino-3,3,6,11b-tetramethyl-4,4-dioxido-4a,5,6,11b-tetrahydro-3H-[1]benzoxepino[4,5-b][1,4]thiazin-10-yl)-5-(2-propyn-1-yloxy)-2-pyridinecarboxamide] | – | – | – | 0.001 µM | 0.002 µM | 329 µM | – | –
16 | Cc1cnc(COc2cnc3c(Nc4ccc5c(c4)[C@@]4(C)N=C(N)C(C)(C)S(=O)(=O)[C@@H]4C[C@H](C)O5)nccc3n2)o1 [Example 134, (4aR,6S,11bR)-3,3,6,11b-tetramethyl-N^~10^~-(2-((5-methyl-1,3-oxazol-2-yl)methoxy)pyrido[3,4-b]pyrazin-5-yl)-4a,5,6,11b-tetrahydro-3H-[1]benzoxepino[4,5-b][1,4]thiazine-2,10-diamine 4,4-dioxide] | – | – | – | 0.003 µM | 0.003 µM | > 44.4 µM | – | –
17 | Cc1cc(C#N)cnc1C(=O)Nc1ccc2c(c1)[C@@]1(C)N=C(N)C(C)(C)S(=O)(=O)[C@@H]1CCC2 [Example 12, N-((4aR,11bR)-2-amino-3,3,11b-trimethyl-4,4-dioxido-3,4a,5,6,7,11b-hexahydrobenzo[3,4]cyclohepta[1,2-b][1,4]thiazin-10-yl)-5-cyano-3-methyl-2-pyridinecarboxamide] | 0.003 µM | – | 1040 µM | – | – | – | 0.001 µM | > 1200 µM
18 | Cc1cc(OC(F)F)cnc1C(=O)Nc1ccc2c(c1)[C@@]1(C)N=C(N)C(C)(C)S(=O)(=O)[C@@H]1CCC2 [Example 41, N-((4aR,11bR)-2-amino-3,3,11b-trimethyl-4,4-dioxido-3,4a,5,6,7,11b-hexahydrobenzo[3,4]cyclohepta[1,2-b][1,4]thiazin-10-yl)-5-(difluoromethoxy)-3-methyl-2-pyridinecarboxamide] | 0.018 µM | – | 5550 µM | – | – | – | 0.005 µM | > 1200 µM
19 | CC1(C)C(N)=N[C@]2(C)c3cc(NC(=O)c4cnc(OCC(F)(F)F)cn4)ccc3OCC[C@H]2S1(=O)=O [Example 169, N-((4aR,11bR)-2-amino-3,3,11b-trimethyl-4,4-dioxido-4a,5,6,11b-tetrahydro-3H-[1]benzoxepino[4,5-b][1,4]thiazin-10-yl)-5-(2,2,2-trifluoroethoxy)-2-pyrazinecarboxamide] | 0.001 µM | 0.004 µM | 1620 µM | – | – | – | – | –
